Laboratory results as given in US20080275134A1, “Methods for Treatment of Retinal Degenerative Disease” (University of Washington, priority 2005, published 2008).

What was measured:
[1] = system: regeneration of vision chromophore (11-cis-retinal); test: regeneration of 11-cis-retinal in mouse eyes after gavage and light bleach, HPLC retinoid analysis; type: in vivo; conditions: 50 mg/kg, tested in parallel with Ret-NH2
Protocol: Mice were gavaged with all-trains-Ret-NH2, exposed to intense light for 20 min, and then allowed to recover in the dark for 5 hours. The total amount of different forms of retinoids in all experiments was unchanged. […] For this experiment mice were treated with both 9-cis-retinol and all-trans-Ret-NH2, and bleached after 24 hours, and were allowed to recover for 5 hours in the dark. The presence of 9-cis-retinal was confirmed in treated animals (see peaks 4 and 4′ in FIG. 4A bottom panel, corresponding to syn- and anti-9-cis-retinal oximes, respectively). 11-cis-Retinal was not reduced and/or esterified after treatment with Ret-NH2. […] This supports the idea that Ret-NH2 is a specific inhibitor of the isomerization reaction.
A. Chromatographic separation of nonpolar retinoids from WT mouse eyes. Mice were gavaged with all-trans-Ret-NH2 24 hours prior to bleaching for 20 min at 150 cd·m^−2 W in the Ganzfeld chamber. Regeneration of 11-cis-retinal was allowed for 24 hours in the dark, and retinoids were extracted from the eye and separated by normal phase HPLC as described in Materials and Methods. The peaks were identified based on elution time and absorption spectra correspond to the following retinoids: 1, all-trans-retinyl esters; 2,2′, syn- and anti-11-cis-retinal oximes; 3, syn-all-trans-retinal oxime; 4,4′, syn- and anti-9-cis-retinal oximes; 5, all-trans-retinol. B. Changes of 11-cis-retinal oxime levels at increasing doses of all-trans-Ret-NH2 during 5 hours or 24 hours of dark adaptation. Square indicates the level of 11-cis-retinal oximes that was present in mice gavaged with vegetable oil without retinoids just after bleaching, and arrow indicates the increase of visual chromophore during 5 hours of dark adaptation. Triangles correspond to the level of 11-cis-retinal found in the mice gavaged with 50 mg/kg of 13-cis-RA. C and D. Single flash ERG responses of increasing intensity for all-trans-Ret-NH2 treated mice and control mice. Serial responses to increasing flash stimuli were obtained for all-trans-Ret-NH2 treated and control mice for selected intensities (C) and plotted as a function of a-wave and b-wave versus varying light intensities under dark-adapted conditions (D) before bleach and at 5 hours and 24 hours after bleach. The dark-adapted mice were bleached with intense constant illumination (150 cd·m^−2) for 20 min. […] SE bars are shown.
Chromatographic separation of nonpolar retinoids from WT mouse eyes. Mice were gavaged with 100 mg/kg of all-trans-Ret-NH2 24 hours prior to bleaching. Mice were next exposed to 500 cd m^−2 for 48 min bleaching in the Ganzfeld chamber. Regeneration of 11-cis-retinal was allowed for 24 hours in the dark, and retinoids were extracted from the eye and separated by normal phase HPLC as described in Materials and Methods. The peaks identified based on elution time and absorption spectra correspond to the following retinoids: 1, all-trans-retinyl esters; 2,2′, syn- and anti-1-cis-retinal oximes; 3,3′ syn- and anti-all-trans-retinal oximes; 4, all-trans-retinol.
Mice were gavaged with the solution of inhibitor in vegetable oil (control—non-treated, RPN—retinylpalmitamide, RAN—retinylacetamide, Ret—NH2-all-trans-retinylamine), kept in dark for 16 hours, then light stimulated and kept in dark for additional 5 hours before their eyes were analyzed.
Mouse retinoid extraction and analysis—Retinoid analysis was performed under dim red light as described previously (Maeda et al., J. Neurochem 85:944-956, 2003; Van Hooser et al., J Biol Chem 277:19173-82, 2002). Mice were gavaged with retinoids as described previously (Van Hooser et al., J Biol Chem 277:19173-82, 2002).

A2E formation = conditions: in vivo; cited from earlier work
11-cis-RDH = conditions: cited from earlier work
RAR = test: F9-RARE-lacZ reporter cell line, β-galactosidase activity (DR5 elements); type: cell-based; conditions: 24 hours treatment, micromolar concentrations
Excerpt: 13-cis-RA can isomerize to all-trans-RA and then to 9-cis-RA, both of which are potent ligands of the RA receptor (RAR). 9-cis-RA also binds and activates the retinoid X receptor (RXR). This contributes to the toxicity of the RAR and RXR ligands. It was investigated whether Ret-NH2 can activate these nuclear receptor using reporter-cells as described previously (20). A β-galactosidase activity assay was employed to examine if all-trans-RA, 9-cis-RA, and Ret-NH2 are agonists for these nuclear receptors.
F9-RARE-lacZ cells express endogenous RAR and RXR and were transfected with a construct of lacZ under the control of a minimal promoter and upstream DR5 elements (1). F9-RARE-lacZ cells were treated with different doses of all-trans-RA or Ret-NH2 for 24 hours after which the cells were harvested and the β-galactosidase activity was measured using the soluble substrate o-nitrophenyl β-D-galactopyranoside. The colorless substrate was cleaved by β-galactosidase to yellow colored o-nitrophenol, whose absorbance was measured at 420 nm using a spectrophotometer. The experiment was repeated twice with similar results. The RARE reporter cell line F9-RARE-lacZ (SIL15-RA) was a kind gift from Dr. Michael Wagner (SUNY Downstate Medical Center) and Dr. Peter McCaffery (University of Massachusetts Medical School). […]

CYP26A1 = biological target: T1, CYP26A1 (Homo sapiens, UniProt O43174); test: oxidation in HEK-293 cells transfected with CYP26A1 cDNA; type: in vitro ADME
T1 construct: expressed in transfected cells; host or cells: HEK-293
T1 sequence (O43174 1-497): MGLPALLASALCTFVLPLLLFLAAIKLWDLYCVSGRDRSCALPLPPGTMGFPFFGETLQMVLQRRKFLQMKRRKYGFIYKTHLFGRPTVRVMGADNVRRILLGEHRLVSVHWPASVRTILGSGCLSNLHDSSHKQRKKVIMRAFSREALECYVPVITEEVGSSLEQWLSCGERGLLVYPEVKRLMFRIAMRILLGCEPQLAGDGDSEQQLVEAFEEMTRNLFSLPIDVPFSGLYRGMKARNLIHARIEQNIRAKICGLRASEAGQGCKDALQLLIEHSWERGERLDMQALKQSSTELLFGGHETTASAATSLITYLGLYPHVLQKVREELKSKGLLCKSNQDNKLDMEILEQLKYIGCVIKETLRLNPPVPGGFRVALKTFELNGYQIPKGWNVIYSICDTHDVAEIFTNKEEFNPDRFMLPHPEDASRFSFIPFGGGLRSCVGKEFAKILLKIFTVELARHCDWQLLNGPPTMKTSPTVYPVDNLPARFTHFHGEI
Excerpt: Next, the RA oxidation pathway was investigated. […] In addition to secretion, Ret-NH2 might be degraded first by deamination to all-trans-retinol/retinal, which was seen to increase in Ret-NH2 treated cells. […] These observations explain the long-lasting effect of RetNH2, as the amide is stored and hydrolyzed back to the free amine.

In the case of `CC1=C(/C=C/C(C)=C/C=C/C(C)=C\C(=O)O)C(C)(C)CCC1` [13-cis-RA, 13-cis-retinoic acid], the “effect on chromophore recovery at 50 mg/kg” value [1] is given as “ineffective”, the “formation of A2E” value (A2E formation) is given as “blocked the formation of A2E” and the “inhibition of 11-cis-RDH” value (11-cis-RDH) is given as “inhibits 11-cis-RDH”.

With `CC1=C(/C=C/C(C)=C/C=C/C(C)=C/C(=O)O)C(C)(C)CCC1` [all-trans-RA, All-trans-retinoic acid, reference compound] the “activation of transcription through RAR (DR5 RARE)” value (RAR) was “activated transcription”.

With `CC1=C(/C=C/C(C)=C/C=C/C(C)=C/C(=O)O)C(C)(C)CCC1` [retinoic acid, reference compound] the “oxidation by CYP26A1” value (CYP26A1) was “readily oxidized”.
